The structures appear in SMILES notation.

The subject of the assay is male Sprague-Dawley rats. Description: Reversal of amphetamine-induced hyperlocomotion. It is filed as in vivo, rat. The following applies: oral gavage, doses per FIG. 4; amphetamine 1 mg/kg sc. As to the method: Locomotor activity was assessed as mean distance traveled (cm) in standard 16×16 photocell testing chambers measuring 43.2 cm (Length)×43.2 cm (Width)×30.5 cm (Height) (Med Associates, St. Albans, Vt.). Animals were habituated to individual activity chambers for at least 30 min prior to drug administration. Following administration of drug or vehicle, activity was recorded for a 90 minute time period. Data was expressed as the mean (±SEM) distance traveled recorded in 5 min intervals over the test period. The data was analyzed using repeated measures analysis of variance (ANOVA) followed by post-hoc testing using Dunnett's test, when appropriate. A difference was considered significant when p≦0.05. […]
The animals were habituated in Smart Open Field locomotor activity test chambers (Hamilton-Kinder, San Diego, Calif.) with 16×16 photobeams to automatically record locomotor activity for 30 min and then dosed with vehicle or test compound. […] At 60 min, all rats were injected subcutaneously with 1 mg/kg amphetamine or vehicle and then monitored for an additional 60 min. Animals are monitored for a total of 120 minutes. Data are expressed as changes in ambulation defined as total number of beam breaks per 5 min periods.
The data for the dose-response studies were analyzed by a between-group analysis of variance. […]

With `O=C1c2cc(COc3ccccc3)nn2CCN1c1ccc(F)cn1`, the “reversal of amphetamine-induced hyperlocomotion” value is “reversal of amphetamine-induced hyperlocomotion”.
